Tested on: 242566-281-R-J2-PDC complex spheroid viability
Experiment: Anticancer human tumor 242566-281-R-J2-PDC patient-derived pancreatic carcinoma cell line growth inhibition [RAS]
Conditions: for IC50: curve of first compound; for viability, T/C: stronger effect = lower value
In short: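 Tumour cells grown as complex spheroids with HUVEC endothelial cells and mesenchymal stem cells, treated with RAS pathway inhibitor combinations. Each agent spans half-log steps from near clinical Cmax, or 10 microM where Cmax is unknown.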

[1] = second compound 0.00316 µM, first compound 0.0316 µM
[2] = second compound 0.00316 µM, first compound 0.1 µM
[3] = second compound 0.00316 µM, first compound 0.316 µM
[4] = second compound 0.00316 µM, first compound 1 µM
[5] = second compound 0.00316 µM, first compound 3.16 µM
[6] = second compound 0.00316 µM, first compound 10 µM
[7] = second compound 0.01 µM, first compound 0.0316 µM
[8] = second compound 0.01 µM, first compound 0.1 µM
[9] = second compound 0.01 µM, first compound 0.316 µM
[10] = second compound 0.01 µM, first compound 1 µM
[11] = second compound 0.01 µM, first compound 3.16 µM
[12] = second compound 0.01 µM, first compound 10 µM
[13] = second compound 0.0316 µM, first compound 0.0316 µM
[14] = second compound 0.0316 µM, first compound 0.1 µM
[15] = second compound 0.0316 µM, first compound 0.316 µM
[16] = second compound 0.0316 µM, first compound 1 µM
[17] = second compound 0.0316 µM, first compound 3.16 µM
[18] = second compound 0.0316 µM, first compound 10 µM
[19] = second compound 0.1 µM, first compound 0.0316 µM
[20] = second compound 0.1 µM, first compound 0.1 µM
[21] = second compound 0.1 µM, first compound 0.316 µM
[22] = second compound 0.1 µM, first compound 1 µM
[23] = second compound 0.1 µM, first compound 3.16 µM
[24] = second compound 0.1 µM, first compound 10 µM
[25] = second compound 0.316 µM, first compound 0.0316 µM
[26] = second compound 0.316 µM, first compound 0.1 µM
[27] = second compound 0.316 µM, first compound 0.316 µM
[28] = second compound 0.316 µM, first compound 1 µM
[29] = second compound 0.316 µM, first compound 3.16 µM
[30] = second compound 0.316 µM, first compound 10 µM
[31] = second compound 1 µM, first compound 0.0316 µM
[32] = second compound 1 µM, first compound 0.1 µM
[33] = second compound 1 µM, first compound 0.316 µM
[34] = second compound 1 µM, first compound 1 µM
[35] = second compound 1 µM, first compound 3.16 µM
[36] = second compound 1 µM, first compound 10 µM
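Note: spheroids exposed to compound for 7 days before readout.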
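Throughout, for viability, T/C: 100% = DMSO vehicle control wells.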

CC1(O)CCCC1n1c(=O)c(C(F)F)cc2cnc(NC3CCN(S(C)(=O)=O)CC3)nc21 (stereo unspecified) + C=CC(=O)N1CCN(c2nc(OCC3CCCN3C)nc3c(F)c(-c4nc(N)cc(C)c4C(F)(F)F)c(Cl)cc23)C(C)C1
IC50 (second compound 0.00316 µM): > 10 µM
IC50 (second compound 0.01 µM): > 10 µM
IC50 (second compound 0.0316 µM): > 10 µM
IC50 (second compound 0.1 µM): > 10 µM
IC50 (second compound 0.316 µM): > 10 µM
IC50 (second compound 1 µM): 9.01 µM
viability, T/C [1]: 86.6%
viability, T/C [2]: 108%
viability, T/C [3]: 83.9%
viability, T/C [4]: 108%
viability, T/C [5]: 112%
viability, T/C [6]: 72.7%
viability, T/C [7]: 99%
viability, T/C [8]: 113%
viability, T/C [9]: 106%
viability, T/C [10]: 99.5%
viability, T/C [11]: 123%
viability, T/C [12]: 68.9%
viability, T/C [13]: 94.7%
viability, T/C [14]: 106%
viability, T/C [15]: 108%
viability, T/C [16]: 132%
viability, T/C [17]: 115%
viability, T/C [18]: 66.6%
viability, T/C [19]: 96.3%
viability, T/C [20]: 104%
viability, T/C [21]: 97.9%
viability, T/C [22]: 106%
viability, T/C [23]: 112%
viability, T/C [24]: 68.2%
viability, T/C [25]: 96.5%
viability, T/C [26]: 108%
viability, T/C [27]: 89.5%
viability, T/C [28]: 116%
viability, T/C [29]: 139%
viability, T/C [30]: 64.5%
viability, T/C [31]: 92.1%
viability, T/C [32]: 126%
viability, T/C [33]: 110%
viability, T/C [34]: 98.1%
viability, T/C [35]: 112%
viability, T/C [36]: 44.2%

CCN1CCN(Cc2ccc(Nc3ncc(F)c(-c4cc(F)c5nc(C)n(C(C)C)c5c4)n3)nc2)CC1 + C=CC(=O)N1CCN(c2nc(OCC3CCCN3C)nc3c(F)c(-c4nc(N)cc(C)c4C(F)(F)F)c(Cl)cc23)C(C)C1
IC50 (second compound 0.00316 µM): > 1 µM
IC50 (second compound 0.01 µM): > 1 µM
IC50 (second compound 0.0316 µM): > 1 µM
IC50 (second compound 0.1 µM): > 1 µM
IC50 (second compound 0.316 µM): > 1 µM
IC50 (second compound 1 µM): > 1 µM
viability, T/C (second compound 0.00316 µM, first compound 0.00316 µM): 121%
viability, T/C (second compound 0.00316 µM, first compound 0.01 µM): 135%
viability, T/C [1]: 100%
viability, T/C [2]: 90.5%
viability, T/C [3]: 123%
viability, T/C [4]: 167%
viability, T/C (second compound 0.01 µM, first compound 0.00316 µM): 95.2%
viability, T/C (second compound 0.01 µM, first compound 0.01 µM): 160%
viability, T/C [7]: 101%
viability, T/C [8]: 88.8%
viability, T/C [9]: 127%
viability, T/C [10]: 154%
viability, T/C (second compound 0.0316 µM, first compound 0.00316 µM): 104%
viability, T/C (second compound 0.0316 µM, first compound 0.01 µM): 120%
viability, T/C [13]: 102%
viability, T/C [14]: 108%
viability, T/C [15]: 131%
viability, T/C [16]: 169%
viability, T/C (second compound 0.1 µM, first compound 0.00316 µM): 115%
viability, T/C (second compound 0.1 µM, first compound 0.01 µM): 136%
viability, T/C [19]: 97.9%
viability, T/C [20]: 89.3%
viability, T/C [21]: 130%
viability, T/C [22]: 167%
viability, T/C (second compound 0.316 µM, first compound 0.00316 µM): 98.1%
viability, T/C (second compound 0.316 µM, first compound 0.01 µM): 134%
viability, T/C [25]: 94.5%
viability, T/C [26]: 99.9%
viability, T/C [27]: 154%
viability, T/C [28]: 154%
viability, T/C (second compound 1 µM, first compound 0.00316 µM): 94.2%
viability, T/C (second compound 1 µM, first compound 0.01 µM): 136%
viability, T/C [31]: 94.9%
viability, T/C [32]: 96.8%
viability, T/C [33]: 138%
viability, T/C [34]: 160%

C[C@@H](NC(=O)c1ncnc(N)c1Cl)c1ncc(C(=O)Nc2cc(C(F)(F)F)c(Cl)cn2)s1 + C=CC(=O)N1CCN(c2nc(OCC3CCCN3C)nc3c(F)c(-c4nc(N)cc(C)c4C(F)(F)F)c(Cl)cc23)C(C)C1
IC50 (second compound 0.00316 µM): > 10 µM
IC50 (second compound 0.01 µM): > 10 µM
IC50 (second compound 0.0316 µM): > 10 µM
IC50 (second compound 0.1 µM): > 10 µM
IC50 (second compound 0.316 µM): > 10 µM
IC50 (second compound 1 µM): > 10 µM
viability, T/C [1]: 111%
viability, T/C [2]: 142%
viability, T/C [3]: 111%
viability, T/C [4]: 106%
viability, T/C [5]: 110%
viability, T/C [6]: 126%
viability, T/C [7]: 112%
viability, T/C [8]: 148%
viability, T/C [9]: 113%
viability, T/C [10]: 105%
viability, T/C [11]: 105%
viability, T/C [12]: 122%
viability, T/C [13]: 125%
viability, T/C [14]: 124%
viability, T/C [15]: 115%
viability, T/C [16]: 123%
viability, T/C [17]: 97.1%
viability, T/C [18]: 118%
viability, T/C [19]: 122%
viability, T/C [20]: 153%
viability, T/C [21]: 107%
viability, T/C [22]: 113%
viability, T/C [23]: 106%
viability, T/C [24]: 109%
viability, T/C [25]: 107%
viability, T/C [26]: 124%
viability, T/C [27]: 122%
viability, T/C [28]: 112%
viability, T/C [29]: 110%
viability, T/C [30]: 124%
viability, T/C [31]: 111%
viability, T/C [32]: 124%
viability, T/C [33]: 119%
viability, T/C [34]: 103%
viability, T/C [35]: 117%
viability, T/C [36]: 106%

— PubChem BioAssay AID2060910 (Molecular Pharmacology Branch, DTP, NCI, 2025)
